From patent US20050075276A1, “Use of inhibitors of glycogen synthase-3 to augment CD28 dependent -T-cell responses” (priority 2003, published 2005)

Assays:
K562 cells = experiment: Cytolytic T-cell (CTL) killing of K562 cells, CytoTox96 assay; format: cell-based, human; details: for potentiation of cytolytic T-cell response: 6 days co-culture, FIG. 5A
Method: Cytotoxic activity was also measured and combined with a control where cultures were treated with anti-CD28 mAbs (5 μg/ml). After 6 days, cytolytic T-cells were harvested, washed twice and co-cultured with fresh K562 cells. Cytotoxcity was measured by the CytoTox96 non-radioative cytotoxicity assay from Promega (Southampton, UK).
(§1) Peripheral blood lymphocytes (PBLs) were isolated by Ficoll gradient centrifugation from Buffy coats, or from blood samples (60-120 cc) taken from healthy volunteers. Leukemic cells K562 were first treated with 50 ug/ml Mitomycin C (Sigma) for 1 hour in 5% CO2 incubator at 37° C. and then washed at least three times with RPMI 1640 to remove the presence of drug. Washed K562 cells and PBLs (1:5 ratio) were then resuspended in RPMI 1640 with 5% fetal calf serum, 1% penicillin-streptomycin and 1% L-glutamine. PBLs and leukemic cells were transferred into 24 well plate. […] Occassionally, PBLs would be preincubated with inhibitor for periods of time (i.e. 5-24 hours) prior to incubation with K562 cells. In either case, cell cultures were then allowed to incubate for 8 days in 5% CO2 incubator at 37° C. prior to an assessment of cytotoxic function. Over this period, the K562 cells die due to the treatment with mitomycin c.
For an assessment of cytotoxity, effector cells (PBLs) and fresh target cell K562 were added into 96 well plates at various ratios (50:1; 25:1 etc.). Culture medium, effector cells and target cells were added into separate wells as background controls. Cytotoxicity was assessed using a Cytotoxicity Assay kit (Promega) as outlined by the manufacturer.
Cytotoxicity was measured by CytoTox96® assay.

Peripheral T-cells = experiment: T-cell proliferation in response to tumor cell line K562 (3H-thymidine incorporation); format: cell-based, human; details: 48 hours, mitomycin C treated K562; FIG. 4
Method: as §1

[Cl-].[Li+] [Lithium Chloride]
effect on cytolytic T-cell (CTL) killing of K562 cells (K562 cells; FIG. 6, inhibitor added at 1 mM and 5 mM): enhances

O=C1NC(=O)C(c2ccccc2[N+](=O)[O-])=C1Nc1ccc(O)c(Cl)c1 [SB415286]
potentiation of cytolytic T-cell response (K562 cells; 10 um, 50:1 effector target ratio): 5-6 fold
potentiation of cytolytic T-cell response (K562 cells; 50 um, 25:1 ratio): 5-6 fold
increase in level of proliferative response to K562 (Peripheral T-cells): two-three fold
